Experimental data: ChEMBL document CHEMBL1201862, “PubChem BioAssay data set” (2004)
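Assay format: 96-well plates, 48-hour exposure. Here, GI50 denotes the concentration required for 50% inhibition of growth.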 Activity calls are given as the source filed them. Rule as the data show it: active = GI50 up to about 1.1 µM and inactive = higher.

Assays:
Assay in all cases: inhibition of tumour cell growth, NCI panel, 48 h
786-0 = system: 786-0
A549 = system: A549
ACHN = system: ACHN
HCT-116 = system: HCT-116
HOP-92 = system: HOP-92
K562 = system: K562
OVCAR-8 = system: OVCAR-8
SK-MEL-28 = system: SK-MEL-28
SK-MEL-2 = system: SK-MEL-2
SNB-19 = system: SNB-19
TK-10 = system: TK-10
UACC-62 = system: UACC-62
COLO 205 = system: COLO 205
NCI-H460 = system: NCI-H460
SF-295 = system: SF-295
T47D = system: T47D
UO-31 = system: UO-31
NCI-H226 = system: NCI-H226
BT-549 = system: BT-549

Measured: GI50

CC(=O)Nc1oc(C)nc1C#N
inactive: 786-0 > 100 µM | A549 > 100 µM | ACHN > 100 µM | HCT-116 > 100 µM | HOP-92 > 100 µM | K562 > 100 µM | OVCAR-8 > 100 µM | SK-MEL-28 > 100 µM | SK-MEL-2 > 100 µM | SNB-19 > 100 µM | TK-10 > 100 µM | UACC-62 > 100 µM

CCOC(=O)C(=O)N1C(C)=C(C(=O)OCC)CC(C(=O)OCC)=C1C
inactive: 786-0 > 100 µM | A549 > 100 µM | ACHN > 100 µM | COLO 205 > 100 µM | HCT-116 > 100 µM | HOP-92 > 100 µM | K562 > 100 µM | NCI-H460 > 100 µM | SF-295 > 100 µM | SK-MEL-28 > 100 µM | SK-MEL-2 > 100 µM | SNB-19 > 100 µM | T47D > 100 µM | TK-10 > 100 µM | UACC-62 > 100 µM | UO-31 > 100 µM

COc1cccc(N2C(=O)C3c4[nH]c5ccc(C)cc5c4C4CCC(C(C)(C)C)CC4C3C2=O)c1 (stereo not given)
inactive: A549 3.38 µM | ACHN > 10 µM | COLO 205 7.16 µM | HCT-116 2.17 µM | K562 2.65 µM | NCI-H226 3.01 µM | NCI-H460 2.21 µM | OVCAR-8 2.58 µM | SF-295 > 10 µM | SK-MEL-28 4.61 µM | SK-MEL-2 > 10 µM | SNB-19 > 10 µM | T47D 7.28 µM | TK-10 > 10 µM | UACC-62 > 10 µM | UO-31 2.8 µM

O=C(O)CCC(NC(=O)c1ccc(OCc2nc3cc(C(F)(F)F)ccc3nc2-c2ccccc2)cc1)C(=O)O (stereo not given)
inactive: 786-0 > 100 µM | A549 > 100 µM | ACHN > 100 µM | COLO 205 > 100 µM | HCT-116 > 100 µM | HOP-92 > 100 µM | K562 > 100 µM | NCI-H226 > 100 µM | NCI-H460 > 100 µM | OVCAR-8 > 100 µM | SF-295 > 100 µM | SK-MEL-28 > 100 µM | SK-MEL-2 > 100 µM | SNB-19 > 100 µM | T47D > 100 µM | TK-10 > 100 µM | UACC-62 > 100 µM | UO-31 > 100 µM

O/N=C\c1c(O)ccc2ccccc12
inactive: 786-0 46.2 µM | A549 46.6 µM | ACHN 24.8 µM | COLO 205 55.3 µM | HCT-116 38.9 µM | HOP-92 73.8 µM | K562 46.8 µM | NCI-H226 33.3 µM | NCI-H460 44.7 µM | OVCAR-8 9.12 µM | SF-295 41.7 µM | SK-MEL-28 47.2 µM | SNB-19 > 100 µM | T47D 27.8 µM | TK-10 40.4 µM | UACC-62 41 µM

O=C(OC1C2OC(=O)c3cc(O)c(O)c(O)c3Oc3cc4c(c(O)c3O)-c3c(cc(O)c(O)c3O)C(=O)OCC3OC(O)C(OC(=O)c5cc(O)c(O)c(O)c5Oc5cc6c(c(O)c5O)-c5c(cc(O)c(O)c5O)C(=O)OC1C(COC6=O)OC2O)C(OC(=O)c1cc(O)c(O)c(O)c1)C3OC4=O)c1cc(O)c(O)c(O)c1 (stereo not given)
inactive: 786-0 21 µM | A549 10.8 µM | ACHN 38.9 µM | COLO 205 5.87 µM | HCT-116 16.4 µM | HOP-92 19 µM | K562 7.8 µM | NCI-H226 22.4 µM | NCI-H460 3.52 µM | OVCAR-8 27 µM | SF-295 14.7 µM | SK-MEL-28 76.7 µM | SNB-19 17.6 µM | T47D > 100 µM | TK-10 38.7 µM | UACC-62 28.4 µM | UO-31 4.8 µM

CCc1cc2c(cc1CCCC(=O)O)CC1(Cc3ccc(C(=O)O)cc3C1)C2 (stereo not given)
inactive: 786-0 > 100 µM | A549 > 100 µM | ACHN > 100 µM | COLO 205 > 100 µM | HCT-116 > 100 µM | HOP-92 > 100 µM | K562 > 100 µM | NCI-H226 > 100 µM | NCI-H460 > 100 µM | OVCAR-8 > 100 µM | SF-295 > 100 µM | SK-MEL-28 > 100 µM | SK-MEL-2 > 100 µM | SNB-19 > 100 µM | T47D > 100 µM | TK-10 > 100 µM | UO-31 > 100 µM

O=C1OCC2(CO1)CC1C=CC2C1 (stereo not given)
inactive: 786-0 > 100 µM | A549 > 100 µM | ACHN > 100 µM | COLO 205 > 100 µM | HCT-116 > 100 µM | HOP-92 > 100 µM | K562 > 100 µM | NCI-H226 > 100 µM | NCI-H460 > 100 µM | SF-295 > 100 µM | SK-MEL-28 > 100 µM | SK-MEL-2 > 100 µM | SNB-19 > 100 µM | T47D > 100 µM | TK-10 > 100 µM | UACC-62 > 100 µM | UO-31 > 100 µM

CCCCCCN1C(=O)CC(=O)N(CCCCCC)S1(=O)=O
inactive: 786-0 18.5 µM | A549 35.2 µM | COLO 205 17.9 µM | HCT-116 29.6 µM | HOP-92 11.6 µM | K562 40.6 µM | NCI-H226 26.6 µM | NCI-H460 31.5 µM | SF-295 18.1 µM | SK-MEL-2 12.7 µM | SNB-19 41.9 µM | T47D 64.3 µM | TK-10 19.1 µM | UACC-62 17.3 µM | UO-31 1.56 µM

COC(=N)CCCl
inactive: 786-0 > 100 µM | A549 > 100 µM | ACHN > 100 µM | BT-549 > 100 µM | COLO 205 > 100 µM | HCT-116 > 100 µM | HOP-92 > 100 µM | K562 > 100 µM | NCI-H226 > 100 µM | NCI-H460 > 100 µM | OVCAR-8 > 100 µM | SF-295 > 100 µM | SK-MEL-28 > 100 µM | SNB-19 > 100 µM | TK-10 > 100 µM | UACC-62 > 100 µM | UO-31 > 100 µM

N#CCCC1(CCC#N)CCCCCCC(CCC#N)(CCC#N)C(O)C1O (stereo not given)
inactive: 786-0 > 100 µM | A549 > 100 µM | ACHN > 100 µM | COLO 205 41.9 µM | HCT-116 > 100 µM | HOP-92 > 100 µM | K562 > 100 µM | NCI-H226 53.8 µM | NCI-H460 > 100 µM | OVCAR-8 > 100 µM | SF-295 > 100 µM | SK-MEL-28 > 100 µM | SK-MEL-2 > 100 µM | SNB-19 > 100 µM | T47D > 100 µM | TK-10 > 100 µM | UO-31 > 100 µM

CC12OC3(C(O)C1O)C(C(=O)O[C@H]3CO[Si](C)(C)C(C)(C)C)C2S(=O)(=O)c1ccccc1 (stereo not given in full)
inactive: 786-0 71.1 µM | A549 45 µM | ACHN 48.1 µM | HCT-116 61.5 µM | HOP-92 38.3 µM | K562 37.8 µM | NCI-H226 5.21 µM | NCI-H460 44.7 µM | OVCAR-8 29.9 µM | SF-295 43.1 µM | SK-MEL-28 56 µM | SK-MEL-2 88.7 µM | SNB-19 40 µM | T47D 36.1 µM | TK-10 59.8 µM | UACC-62 16.1 µM | UO-31 40.8 µM

Cc1ccc(Nc2nc3c(=O)n(C)c(=O)n(C)c3nc2Nc2ccc(C)cc2)cc1
inactive: 786-0 6.04 µM | A549 19.9 µM | ACHN 3.46 µM | COLO 205 4.67 µM | HCT-116 9.27 µM | HOP-92 11.4 µM | K562 6.56 µM | NCI-H226 28.8 µM | NCI-H460 28.8 µM | OVCAR-8 13.6 µM | SF-295 20.8 µM | SK-MEL-28 16.7 µM | SK-MEL-2 17.8 µM | SNB-19 31.3 µM | T47D 15.5 µM | TK-10 16.4 µM | UACC-62 12.3 µM | UO-31 12.1 µM

CC1CCc2c(sc3ncnc(N/N=C/c4ccc(Cl)cc4)c23)C1 (stereo not given)
inactive: 786-0 34.7 µM | A549 31 µM | ACHN 27.3 µM | COLO 205 31.6 µM | HCT-116 19.3 µM | K562 18.6 µM | NCI-H226 11.7 µM | NCI-H460 29.4 µM | OVCAR-8 31.4 µM | SF-295 29.8 µM | SK-MEL-28 32.3 µM | SK-MEL-2 48.8 µM | SNB-19 30.1 µM | TK-10 38.2 µM | UACC-62 31.1 µM | UO-31 4.78 µM

C=C1CC2CC(=O)C(O)C(C1)C2 (stereo not given)
inactive: 786-0 > 100 µM | A549 > 100 µM | ACHN > 100 µM | COLO 205 > 100 µM | HCT-116 > 100 µM | HOP-92 > 100 µM | K562 > 100 µM | NCI-H226 > 100 µM | NCI-H460 > 100 µM | OVCAR-8 > 100 µM | SF-295 > 100 µM | T47D 69 µM | TK-10 > 100 µM | UACC-62 > 100 µM | UO-31 > 100 µM

COc1cc(C(C)O)c(S(=O)(=O)CC(C)O)nn1 (stereo not given)
inactive: A549 > 100 µM | ACHN > 100 µM | BT-549 > 100 µM | COLO 205 > 100 µM | HCT-116 > 100 µM | HOP-92 > 100 µM | K562 72.9 µM | NCI-H226 64.1 µM | NCI-H460 > 100 µM | OVCAR-8 > 100 µM | SF-295 > 100 µM | SK-MEL-28 > 100 µM | SNB-19 > 100 µM | TK-10 > 100 µM | UACC-62 > 100 µM | UO-31 > 100 µM
